Data taken from ChEMBL document CHEMBL5576041, “13-oxyingenol dodecanoate derivatives induce mitophagy and ferroptosis through targeting TMBIM6 as potential anti-NSCLC agents” (Eur J Med Chem, 2024).
pIC50: −log10 of the molar value. The source made the active and inactive calls. No cut-off for these calls is given here.

Experiments:
A549 [1] = test: Induction of ferroptosis in human A549 cells assessed as increase in malondialdehyde content at 5 to 20 uM; format: functional, cell-based; conditions: dose 5-20 µM
A549 [2] = test: Induction of autophagy in human A549 cells assessed as effect on LC3II protein expression upto 20 uM incubated for 24 hrs by Western blot analysis; format: functional, cell-based
[3] = molecular target: T1, Cystine/glutamate transporter (Homo sapiens) (UniProt Q9UPY5); test: Inhibition of SLC7A11 in human […] cells at 5 to 20 uM by Western blot analysis; format: cell-based; conditions: A549, dose 5-20 µM
T1 sequence (whole entry): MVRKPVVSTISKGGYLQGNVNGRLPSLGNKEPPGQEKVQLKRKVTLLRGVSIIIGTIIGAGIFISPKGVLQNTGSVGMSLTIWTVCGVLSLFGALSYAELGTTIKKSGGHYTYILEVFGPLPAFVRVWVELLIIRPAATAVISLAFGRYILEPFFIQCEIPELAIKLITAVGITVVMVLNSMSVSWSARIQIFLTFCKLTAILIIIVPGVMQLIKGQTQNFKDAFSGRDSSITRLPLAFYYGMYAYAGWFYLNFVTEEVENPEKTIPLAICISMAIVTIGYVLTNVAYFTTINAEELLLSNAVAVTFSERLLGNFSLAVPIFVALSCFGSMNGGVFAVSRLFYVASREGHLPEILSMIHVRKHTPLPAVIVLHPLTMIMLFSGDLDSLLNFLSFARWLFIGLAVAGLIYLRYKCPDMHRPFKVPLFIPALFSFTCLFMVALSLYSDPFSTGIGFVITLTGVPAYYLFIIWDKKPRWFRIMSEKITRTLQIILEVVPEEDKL

A549 [4] = test: Induction of autophagy in human A549 cells incubated for 12 hrs by MDC staining based flow cytometric analysis; format: functional, cell-based
A549 [5] = test: Induction of lipid ROS accumulation in human A549 cells at 20 uM incubated for 24 hrs in presence of Fer-1 by DCFH/C11-BODIPY probe based flow cytometric analysis; format: functional, cell-based
A549 [6] = test: Stabilization of […] in human A549 cells assessed as reduction in polyubiquitination at 20 uM in presence of MG132 by immunoprecipitation analysis; format: cell-based
A549 [7] = test: Induction of ROS accumulation in human A549 cells at 20 uM by DCFH/C11-BODIPY probe based flow cytometric analysis; format: functional, cell-based; conditions: time 2-24 hrs, TDE = time-dependent effect
A549 [8] = test: Induction of ferroptosis in human A549 cells assessed as increase in […] accumulation; format: functional, cell-based
A549 [9] = test: Downregulation of TMBIM6 protein expression in human A549 cells at 10 uM by Western blot analysis; format: functional, cell-based
[10] = molecular target: Bax inhibitor 1 (Homo sapiens) (UniProt P55061); test: Thermal stabilization of TMBIM6 in human A549 cells at 46 to 60 degreeC at 100 uM incubated for 2 hrs by CETSA based Western blot analysis; format: cell-based
[11] = molecular target: Bax inhibitor 1 (Homo sapiens) (UniProt P55061); test: Binding affinity to TMBIM6 in human A549 cells by cluster analysis; format: cell-based
[12] = molecular target: Bax inhibitor 1 (Homo sapiens) (UniProt P55061); test: Thermal stabilization of TMBIM6 in human A549 cells at 54 to 60 degreeC at 100 uM incubated for 2 hrs by CETSA based Western blot analysis; format: cell-based
A549 [13] = test: Induction of ROS accumulation in human A549 cells incubated for 24 hrs by DCFH/C11-BODIPY probe based flow cytometric analysis; format: functional, cell-based; conditions: dose 5-20 µM
[14] = Selectivity index, ratio of IC50 for cytotoxicity against human BEAS-2B cells to IC50 for antiproliferative activity against human A549 cells; format: toxicity, cell-based; conditions: read-out: Ratio IC50
[15] = molecular target: Non-selective voltage-gated ion channel VDAC1 (Homo sapiens) (UniProt P21796); test: Activation of VDAC1 channel in human A549 cells assessed as increase in mitochondrial Ca2+ endocytosis by staining based analysis; format: cell-based; conditions: filed as opener
A549 [16] = test: Antiproliferative activity against human A549 cells assessed as inhibition of cell growth incubated for 48 hrs by CCK8 assay; format: functional, cell-based; conditions: A549, 48 h
A549 [17] = test: Induction of lipid ROS accumulation in human A549 cells at 20 uM incubated for 24 hrs in presence of DFO by DCFH/C11-BODIPY probe based flow cytometric analysis; format: functional, cell-based
A549 [18] = test: Antiproliferative activity against human A549 cells assessed as inhibition of cell growth incubated for 24 hrs by CCK8 assay; format: functional, cell-based; conditions: A549, 24 h
A549 [19] = test: Induction of lipid ROS accumulation in human A549 cells at 20 uM incubated for 24 hrs in presence of NAC by DCFH/C11-BODIPY probe based flow cytometric analysis; format: functional, cell-based
A549 [20] = test: Antiproliferative activity against human A549 cells assessed as inhibition of cell growth incubated for 24 to 72 hrs by CCK8 assay; format: functional, cell-based
A549 [21] = test: Activation of Nrf2-Keap1-HO-1 signaling pathway in human A549 cells assessed as increase in oxidative stress by measuring lipid ROS level at 5 to 20 uM by Western blot analysis; format: cell-based; conditions: filed as activator, dose 5-20 µM
A549 [22] = test: Induction of TMBIM6-VDAC1 protein-protein interaction in human A549 cells at 20 uM by immunoprecipitation analysis; format: cell-based; conditions: filed as activator
A549 [23] = test: Induction of ferroptosis in human A549 cells assessed as reduction in GSH content incubated for 2 to 12 hrs; format: functional, cell-based; conditions: time 2-12 hrs
A549 [24] = test: Increase in Ca2+ level in human A549 cell cytoplasm at 5 to 20 uM incubated for 8 hrs by confocal photographic analysis; format: functional, cell-based; conditions: dose 5-20 µM
Cell membrane [25] = test: Induction of mitochondrial membrane depolarization in human A549 cells assessed as increases in mitochondrial Ca2+ concentration incubated for 8 hrs by Rhod-2 AM probe based flow cytometric analysis; format: cell membranes
Cell membrane [26] = test: Induction of mitochondrial membrane depolarization in human A549 cells assessed as increases in mitochondrial Ca2+ concentration by Rhod-2 AM probe based flow cytometric analysis; format: cell membranes
NCI-H460 = test: Antiproliferative activity against human NCI-H460 cells assessed as inhibition of cell growth incubated for 24 to 72 hrs by CCK8 assay; format: functional, cell-based
A549 [27] = test: Induction of autophagy in human A549 cells assessed as effect on PINK1 protein expression upto 20 uM incubated for 24 hrs by Western blot analysis; format: functional, cell-based
A549 [28] = test: Induction of lipid ROS accumulation in human A549 cells at 20 uM incubated for 24 hrs in presence of Lip-1 by DCFH/C11-BODIPY probe based flow cytometric analysis; format: functional, cell-based
HepG2 = test: Antiproliferative activity against human HepG2 cells assessed as inhibition of cell growth incubated for 24 to 72 hrs by CCK8 assay; format: functional, cell-based
A549 [29] = test: Activation of Nrf2-Keap1-HO-1 signaling pathway in human A549 cells assessed as increase in oxidative stress by measuring lipid ROS level at 10 to 20 uM by Western blot analysis; format: cell-based; conditions: filed as activator, dose 10-20 µM
A549 [30] = test: Induction of autophagy in human A549 cells assessed as effect on PINK1 protein expression at 10 to 20 uM incubated for 24 hrs by Western blot analysis; format: functional, cell-based; conditions: dose 10-20 µM
A549 [31] = test: Induction of ferroptosis in human A549 cells assessed as increase in malondialdehyde content; format: functional, cell-based
Cell membrane [32] = test: Induction of mitochondrial membrane potential loss in human A549 cells at 10 to 20 uM incubated for 6 hrs by JC-1 staining based flow cytometric analysis; format: cell membranes; conditions: dose 10-20 µM
[33] = molecular target: T1, Cystine/glutamate transporter (Homo sapiens); test: Inhibition of SLC7A11 in human […] cells at 10 to 20 uM by Western blot analysis; format: cell-based; conditions: A549, dose 10-20 µM
A549 [34] = test: Induction of autophagy in human A549 cells assessed as effect on LC3II protein expression at 10 to 20 uM incubated for 24 hrs by Western blot analysis; format: functional, cell-based; conditions: dose 10-20 µM
[35] = molecular target: Bax inhibitor 1 (Homo sapiens) (UniProt P55061); test: Competitive binding affinity to TMBIM6 in human A549 cells assessed as reduction in 13-oxyingenol dodecanoate binding to protein at 4 uM in presence of 6 fold 13-oxyingenol dodecanoate by pull down Western blot analysis; format: cell-based
[36] = molecular target: Bax inhibitor 1 (Homo sapiens) (UniProt P55061); test: Binding affinity to TMBIM6 in human A549 cells at 4 uM by pull down Western blot analysis; format: cell-based
[37] = molecular target: Bax inhibitor 1 (Homo sapiens) (UniProt P55061); test: Binding affinity to TMBIM6 at Met-68 residue in human A549 cells by high-resolution mass spectrometric analysis; format: cell-based
[38] = molecular target: Bax inhibitor 1 (Homo sapiens) (UniProt P55061); test: Binding affinity to TMBIM6 in human A549 cells assessed as increase in co-localization in cytoplasm at 4 uM by immunofluorescence analysis; format: cell-based
[39] = molecular target: Bax inhibitor 1 (Homo sapiens) (UniProt P55061); test: Competitive binding affinity to TMBIM6 in human A549 cells in presence of 2 to 6 fold of 13-oxyingenol dodecanoate by immunofluorescence analysis; format: cell-based

Sequence of Bax inhibitor 1 (Homo sapiens) (P55061 whole entry): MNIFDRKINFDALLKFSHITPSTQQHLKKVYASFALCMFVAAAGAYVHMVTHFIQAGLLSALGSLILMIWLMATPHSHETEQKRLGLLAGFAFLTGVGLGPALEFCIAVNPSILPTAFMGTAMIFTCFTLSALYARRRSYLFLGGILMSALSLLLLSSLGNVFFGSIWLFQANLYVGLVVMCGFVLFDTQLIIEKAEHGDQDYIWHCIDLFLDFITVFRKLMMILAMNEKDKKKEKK
Sequence of Non-selective voltage-gated ion channel VDAC1 (Homo sapiens) (P21796 whole entry): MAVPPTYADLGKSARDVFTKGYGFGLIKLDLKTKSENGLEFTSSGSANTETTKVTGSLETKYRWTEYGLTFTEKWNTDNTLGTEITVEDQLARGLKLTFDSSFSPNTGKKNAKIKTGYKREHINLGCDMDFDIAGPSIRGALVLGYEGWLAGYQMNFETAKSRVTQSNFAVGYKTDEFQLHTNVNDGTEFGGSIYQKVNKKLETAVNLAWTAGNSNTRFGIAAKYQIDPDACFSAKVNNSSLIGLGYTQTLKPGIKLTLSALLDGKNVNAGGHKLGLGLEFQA

| Structure (SMILES) | Activity (A549 [8]) | Activity (A549 [9]) | Activity [10] | Activity [12] | selectivity ratio [14] | Activity [15] | pIC50 (A549 [16]) | pIC50 (A549 [18]) | pIC50 (A549 [20]) | Activity (A549 [22]) | Activity (A549 [23]) | Activity (A549 [24]) | Activity (Cell membrane [25]) | Activity (Cell membrane [26]) | pIC50 (NCI-H460) | pIC50 (HepG2) | Activity (A549 [29]) | Activity (A549 [30]) | Activity (A549 [31]) | Activity (Cell membrane [32]) | also measured |
| --- | --- | --- | --- | --- | --- | --- | --- | --- | --- | --- | --- | --- | --- | --- | --- | --- | --- | --- | --- | --- | --- |
| CCCCCCCCCCCC(=O)O[C@@]12C[C@@H](C)[C@]34C=C(C)[C@H](O)[C@@]3(O)[C@H](O)C(CO)=C[C@H](C4=O)[C@@H]1C2(C)C | Active | Active | Active | Active | 11.1 | Active | 4.76 | 5.06 | 5.41 | Active | Active | Active | Active | Active | 5.15 | 5.28 | – | – | – | – | Activity (A549 [1]): Active; Activity (A549 [2]): Active; inhibition [3]: Active; Activity (A549 [4]): Dose-Dependent Effect; Activity (A549 [5]): inactive; Activity (A549 [6]): Active; Activity (A549 [7]): Tde; Activity [11]: Active; Activity (A549 [13]): Dose-Dependent Effect; Activity (A549 [17]): inactive; Activity (A549 [19]): inactive; Activity (A549 [21]): Active; Activity (A549 [27]): Active; Activity (A549 [28]): inactive |
| CCCCCCCCCCCC(=O)O[C@@]12C[C@@H](C)[C@]34C=C(C)[C@H](OC(=O)c5ccc(F)cc5)[C@@]3(O)[C@H](O)C(CO)=C[C@H](C4=O)[C@@H]1C2(C)C | Active | Active | Active | Active | 19.8 | Active | – | – | 5.59 | Active | Active | Active | Active | Active | 4.68 | 4.68 | Active | Active | Active | Active | inhibition [33]: Active; Activity (A549 [34]): Active |
| CCCCCCCCCCCC(=O)O[C@@]12C[C@@H](C)[C@]34C=C(C)[C@H](OC(=O)NCCC)[C@@]3(O)[C@H](O)C(CO)=C[C@H](C4=O)[C@@H]1C2(C)C | Active | Active | Active | Active | 10.6 | Active | – | – | 5.33 | Active | Active | Active | Active | Active | 5.07 | 4.67 | Active | Active | Active | Active | inhibition [33]: Active; Activity (A549 [34]): Active |
| C#CCCC1(CCNC(=O)O[C@H]2C(C)=C[C@]34C(=O)[C@@H](C=C(CO)[C@@H](O)[C@]23O)[C@@H]2C(C)(C)[C@]2(OC(=O)CCCCCCCCCCC)C[C@H]4C)N=N1 | – | – | – | – | – | – | 4.86 | 5.09 | – | – | – | – | – | – | – | – | – | – | – | – | Activity [35]: Active; Activity [36]: Active; Activity [37]: Active; Activity [38]: Active; Activity [39]: Active |
